Experimental data published in patent publication US20250312352A1, “GLP-1R MODULATING COMPOUNDS” (Gilead Sciences, Inc., priority 2021, published 2025).

Target: T1, GLP-1R (Homo sapiens, UniProt P43220)
T1 construct: host or cells: CHO cells
Assay: GLP-1R activation cAMP assay (Assay 1 or Assay 2)
Assay type: cell-based
Conditions: cAMP increase in CHO cells stably expressing GLP-1R; compounds run on one of the two cAMP assays
How it was run: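 CHO cells stably expressing human GLP-1R were incubated 1 h in HBSS/20 mM HEPES/0.1% BSA, then exposed to 10-point agonist dilutions for 30 min at 37 °C. cAMP increase was measured with an HTRF Gs dynamic kit; EC50 from sigmoidal fit of response versus log concentration.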

T1 sequence (P43220 24-463): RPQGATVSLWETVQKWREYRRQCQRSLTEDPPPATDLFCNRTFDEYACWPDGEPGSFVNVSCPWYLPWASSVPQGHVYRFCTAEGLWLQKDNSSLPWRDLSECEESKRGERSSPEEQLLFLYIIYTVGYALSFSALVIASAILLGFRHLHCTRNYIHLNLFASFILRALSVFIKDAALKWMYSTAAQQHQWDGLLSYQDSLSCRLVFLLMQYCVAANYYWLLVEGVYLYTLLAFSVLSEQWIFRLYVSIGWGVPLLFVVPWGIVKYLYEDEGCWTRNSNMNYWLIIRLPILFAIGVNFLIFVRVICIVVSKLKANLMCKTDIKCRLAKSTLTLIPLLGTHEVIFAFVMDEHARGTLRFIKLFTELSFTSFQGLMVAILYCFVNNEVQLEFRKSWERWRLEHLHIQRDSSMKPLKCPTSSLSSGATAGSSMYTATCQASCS

Compared with CNC(=O)c1cc(Cl)c(COc2cc(-c3cc(F)c(Cc4nc5c(F)cc(C(=O)O)cc5n4C[C@@H]4CCO4)cc3F)ccc2F)cn1 [Example 388, (S)-2-((3′-((4-chloro-6-(methylcarbamoyl)pyridin-3-yl)methoxy)-2,4′,5-trifluoro-[1,1′-biphenyl]-4-yl)methyl)-4-fluoro-1-(oxetan-2-ylmethyl)-1H-benzo[d]imidazole-6-carboxylic acid], CNC(=O)c1cc(Cl)c(COc2cccc(-c3cc(F)c(Cc4nc5c(F)cc(C(=O)O)cc5n4C[C@@H]4CCO4)cc3C)n2)cn1 [Example 394, (S)-2-(4-(6-((4-chloro-6-(methylcarbamoyl)pyridin-3-yl)methoxy)pyridin-2-yl)-2-fluoro-5-methylbenzyl)-4-fluoro-1-(oxetan-2-ylmethyl)-1H-benzo[d]imidazole-6-carboxylic acid] is 3.3-fold higher in EC50: 0.186 nM for the first, 0.62 nM for the second.

COc1nnc(COc2cc(-c3cc(F)c(Cc4nc5c(F)cc(C(=O)O)cc5n4C[C@@H]4CCO4)cc3F)ccc2F)s1 [Example 389, (S)-4-fluoro-1-(oxetan-2-ylmethyl)-2-((2,4′,5-trifluoro-3′-((5-methoxy-1,3,4-thiadiazol-2-yl)methoxy)-[1,1′-biphenyl]-4-yl)methyl)-1H-benzo[d]imidazole-6-carboxylic acid] and O=C(O)c1cc(F)c2nc(Cc3cc(F)c(-c4ccc(F)c(OCc5ncc(C(F)F)s5)n4)cc3F)n(C[C@@H]3CCO3)c2c1 [Example 407, (S)-2-(4-(6-((5-(difluoromethyl)thiazol-2-yl)methoxy)-5-fluoropyridin-2-yl)-2,5-difluorobenzyl)-4-fluoro-1-(oxetan-2-ylmethyl)-1H-benzo[d]imidazole-6-carboxylic acid] are within 1.5-fold of each other in EC50: 0.257 nM for the first, 0.239 nM for the second.

O=C(O)c1cc(F)c2nc(Cc3cc(F)c(-c4cccc(OCc5ncc(C#Cc6cncs6)cc5F)n4)cc3F)n(C[C@@H]3CCO3)c2c1 [Example 390, (S)-2-(2,5-difluoro-4-(6-((3-fluoro-5-(thiazol-5-ylethynyl)pyridin-2-yl)methoxy)pyridin-2-yl)benzyl)-4-fluoro-1-(oxetan-2-ylmethyl)-1H-benzo[d]imidazole-6-carboxylic acid] and Cn1cc(C#Cc2cnc(COc3cccc(-c4cc(F)c(Cc5nc6c(F)cc(C(=O)O)cc6n5C[C@@H]5CCO5)cc4F)n3)c(F)c2)cn1 [Example 392, (S)-2-(2,5-difluoro-4-(6-((3-fluoro-5-((1-methyl-1H-pyrazol-4-yl)ethynyl)pyridin-2-yl)methoxy)pyridin-2-yl)benzyl)-4-fluoro-1-(oxetan-2-ylmethyl)-1H-benzo[d]imidazole-6-carboxylic acid] are within 1.5-fold of each other in EC50: 0.235 nM for the first, 0.206 nM for the second.

First: Cn1cc(C#Cc2ccc(COc3cccc(-c4cc(F)c(Cc5nc6c(F)cc(C(=O)O)cc6n5C[C@@H]5CCO5)cc4F)n3)cn2)cn1 [Example 391, (S)-2-(2,5-difluoro-4-(6-((6-((1-methyl-1H-pyrazol-4-yl)ethynyl)pyridin-3-yl)methoxy)pyridin-2-yl)benzyl)-4-fluoro-1-(oxetan-2-ylmethyl)-1H-benzo[d]imidazole-6-carboxylic acid]
Second: Cn1cncc1C#Cc1ccc(COc2cccc(-c3cc(F)c(Cc4nc5c(F)cc(C(=O)O)cc5n4C[C@@H]4CCO4)cc3F)n2)c(F)c1 [Example 395, (S)-2-(2,5-difluoro-4-(6-((2-fluoro-4-((1-methyl-1H-imidazol-5-yl)ethynyl)benzyl)oxy)pyridin-2-yl)benzyl)-4-fluoro-1-(oxetan-2-ylmethyl)-1H-benzo[d]imidazole-6-carboxylic acid]
The EC50 of the first is 1.5-fold higher: 0.305 nM for the first, 0.197 nM for the second.

Compared with CNC(=O)c1cc(Cl)c(COc2cccc(-c3cc(F)c(Cc4nc5c(F)cc(C(=O)O)cc5n4C[C@@H](C)OC)cc3F)n2)cn1 [Example 393, (R)-2-(4-(6-((4-chloro-6-(methylcarbamoyl)pyridin-3-yl)methoxy)pyridin-2-yl)-2,5-difluorobenzyl)-4-fluoro-1-(2-methoxypropyl)-1H-benzo[d]imidazole-6-carboxylic acid], CNC(=O)c1cc(Cl)c(COc2cccc(-c3cc(F)c(Cc4nc5c(F)cc(C(=O)O)cc5n4CC4(CF)CC4)c(F)c3F)n2)cn1 [Example 398, 2-(4-(6-((4-chloro-6-(methylcarbamoyl)pyridin-3-yl)methoxy)pyridin-2-yl)-2,3,6-trifluorobenzyl)-4-fluoro-1-((1-(fluoromethyl)cyclopropyl)methyl)-1H-benzo[d]imidazole-6-carboxylic acid] is 46-fold lower in EC50: 0.777 nM for the first, 0.017 nM for the second. The second is the more potent here.

CCOc1nnc(COc2cccc(-c3cc(F)c(Cc4nc5ccc(C(=O)O)c(F)c5n4CCOC)cc3F)n2)s1 [Example 396, 2-(4-(6-((5-ethoxy-1,3,4-thiadiazol-2-yl)methoxy)pyridin-2-yl)-2,5-difluorobenzyl)-7-fluoro-1-(2-methoxyethyl)-1H-benzo[d]imidazole-6-carboxylic acid] and COc1nnc(COc2nc(-c3cc(F)c(Cc4nc5c(F)cc(C(=O)O)cc5n4CC4(CF)CC4)cc3F)ccc2F)s1 [Example 410, 2-(2,5-difluoro-4-(5-fluoro-6-((5-methoxy-1,3,4-thiadiazol-2-yl)methoxy)pyridin-2-yl)benzyl)-4-fluoro-1-((1-(fluoromethyl)cyclopropyl)methyl)-1H-benzo[d]imidazole-6-carboxylic acid] are within 1.5-fold of each other in EC50: 0.678 nM for the first, 0.551 nM for the second.

CCOc1nnc(COc2nc(-c3ccc(Cc4nc5ccc(C(=O)O)cc5n4[C@@H]4COCC4(C)C)c(F)c3)ccc2F)s1 [Example 397, (S)-1-(4,4-dimethyltetrahydrofuran-3-yl)-2-(4-(6-((5-ethoxy-1,3,4-thiadiazol-2-yl)methoxy)-5-fluoropyridin-2-yl)-2-fluorobenzyl)-1H-benzo[d]imidazole-6-carboxylic acid] and COc1nnc(COc2cccc(-c3ccc(Cc4nc5ccc(C(=O)O)cc5n4[C@@H]4COCC4(C)C)c(F)c3)n2)s1 [Example 401, (S)-1-(4,4-dimethyltetrahydrofuran-3-yl)-2-(2-fluoro-4-(6-((5-methoxy-1,3,4-thiadiazol-2-yl)methoxy)pyridin-2-yl)benzyl)-1H-benzo[d]imidazole-6-carboxylic acid] are within 1.5-fold of each other in EC50: 0.497 nM for the first, 0.487 nM for the second.

Going from CNC(=O)c1cc(Cl)c(COc2cccc(-c3ccc(Cc4nc5ccc(C(=O)O)cc5n4[C@@H]4COCC4(C)C)c(F)c3)n2)cn1 [Example 399, (S)-2-(4-(6-((4-chloro-6-(methylcarbamoyl)pyridin-3-yl)methoxy)pyridin-2-yl)-2-fluorobenzyl)-1-(4,4-dimethyltetrahydrofuran-3-yl)-1H-benzo[d]imidazole-6-carboxylic acid] to CNC(=O)c1cc(Cl)c(COc2cccc(-c3ccc(Cc4nc5ccc(C(=O)O)cc5n4CC4(CF)CC4)c(F)c3)n2)cn1 [Example 402, 2-(4-(6-((4-chloro-6-(methylcarbamoyl)pyridin-3-yl)methoxy)pyridin-2-yl)-2-fluorobenzyl)-1-((1-(fluoromethyl)cyclopropyl)methyl)-1H-benzo[d]imidazole-6-carboxylic acid], the EC50 rises from 0.01 nM to 0.208 nM (21-fold). The first is the more potent here.

Compared with COc1nnc(COc2cccc(-c3ccc(Cc4nc5ccc(C(=O)O)cc5n4[C@@H]4COCC4(C)C)cc3F)n2)s1 [Example 400, (S)-1-(4,4-dimethyltetrahydrofuran-3-yl)-2-(3-fluoro-4-(6-((5-methoxy-1,3,4-thiadiazol-2-yl)methoxy)pyridin-2-yl)benzyl)-1H-benzo[d]imidazole-6-carboxylic acid], C[C@H]1COC[C@H]1n1c(Cc2cc(F)c(-c3ccc(F)c(OCc4ncc(C(F)(F)F)s4)n3)cc2F)nc2ccc(C(=O)O)cc21 [Example 409, 2-(2,5-difluoro-4-(5-fluoro-6-((5-(trifluoromethyl)thiazol-2-yl)methoxy)pyridin-2-yl)benzyl)-1-((3S,4R)-4-methyltetrahydrofuran-3-yl)-1H-benzo[d]imidazole-6-carboxylic acid] is 1.7-fold higher in EC50: 0.412 nM for the first, 0.695 nM for the second. The first is the more potent here.

Going from O=C(O)c1ccc2nc(Cc3cc(F)c(-c4cccc(OCc5ccc(C#Cc6cnc(Cl)nc6)cc5)n4)cc3F)n(C[C@@H]3CCO3)c2c1 [Example 403, (S)-2-(4-(6-((4-((2-chloropyrimidin-5-yl)ethynyl)benzyl)oxy)pyridin-2-yl)-2,5-difluorobenzyl)-1-(oxetan-2-ylmethyl)-1H-benzo[d]imidazole-6-carboxylic acid] to O=C(O)c1ccc2nc(Cc3cc(F)c(-c4cccc(OCc5ccc(C#Cc6cncnc6)cc5)n4)cc3F)n(C[C@@H]3CCO3)c2c1 [Example 405, (S)-2-(2,5-difluoro-4-(6-((4-(pyrimidin-5-ylethynyl)benzyl)oxy)pyridin-2-yl)benzyl)-1-(oxetan-2-ylmethyl)-1H-benzo[d]imidazole-6-carboxylic acid], the EC50 rises from 0.096 nM to 0.363 nM (3.8-fold).

Going from N#Cc1ccc(C#Cc2cnc(COc3cccc(-c4cc(F)c(Cc5nc6ccc(C(=O)O)cc6n5C[C@@H]5CCO5)cc4F)n3)nc2)cc1 [Example 404, (S)-2-(4-(6-((5-((4-cyanophenyl)ethynyl)pyrimidin-2-yl)methoxy)pyridin-2-yl)-2,5-difluorobenzyl)-1-(oxetan-2-ylmethyl)-1H-benzo[d]imidazole-6-carboxylic acid] to O=C(O)c1ccc2nc(Cc3cc(F)c(-c4ccc(F)c(OCc5ncc(C(F)F)s5)n4)cc3F)n(C[C@@H]3CCO3)c2c1 [Example 406, (S)-2-(4-(6-((5-(difluoromethyl)thiazol-2-yl)methoxy)-5-fluoropyridin-2-yl)-2,5-difluorobenzyl)-1-(oxetan-2-ylmethyl)-1H-benzo[d]imidazole-6-carboxylic acid], the EC50 falls from 0.689 nM to 0.385 nM (1.8-fold).

In the case of O=C(O)c1cc(F)c2nc(Cc3cc(F)c(-c4ccnc(OCc5ncc(C(F)(F)F)s5)n4)cc3F)n(C[C@@H]3CCO3)c2c1 [Example 408, (S)-2-(2,5-difluoro-4-(2-((5-(trifluoromethyl)thiazol-2-yl)methoxy)pyrimidin-4-yl)benzyl)-4-fluoro-1-(oxetan-2-ylmethyl)-1H-benzo[d]imidazole-6-carboxylic acid], the EC50 is reported as 0.381 nM.
